Measurements as given in BindingDB's records for PubMed 8968358 (University of California, 1996).

Molecular target: Muscarinic acetylcholine receptor M3 (Rattus norvegicus, UniProt P08483)
Sequence (P08483 whole entry): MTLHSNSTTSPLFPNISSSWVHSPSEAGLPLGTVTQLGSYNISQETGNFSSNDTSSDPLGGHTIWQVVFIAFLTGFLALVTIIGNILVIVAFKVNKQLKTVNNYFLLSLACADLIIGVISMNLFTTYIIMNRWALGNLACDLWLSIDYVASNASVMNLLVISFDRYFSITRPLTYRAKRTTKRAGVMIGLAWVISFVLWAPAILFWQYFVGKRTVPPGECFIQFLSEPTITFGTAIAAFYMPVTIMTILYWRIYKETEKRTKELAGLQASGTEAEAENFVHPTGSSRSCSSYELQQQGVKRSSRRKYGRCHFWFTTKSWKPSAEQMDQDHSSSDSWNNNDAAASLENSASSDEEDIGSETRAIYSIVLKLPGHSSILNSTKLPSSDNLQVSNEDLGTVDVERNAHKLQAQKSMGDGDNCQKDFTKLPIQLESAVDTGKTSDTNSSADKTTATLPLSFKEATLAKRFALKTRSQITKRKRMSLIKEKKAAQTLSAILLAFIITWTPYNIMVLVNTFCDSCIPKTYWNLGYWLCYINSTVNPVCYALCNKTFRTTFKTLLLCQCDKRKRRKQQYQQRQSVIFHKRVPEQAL

Work on `C[N+](C)(C)CC#CCN1CCCC1=O` yielded a Ki of 8.7 µM.
